Experimental data reported in ChEMBL document CHEMBL2046435, “Cytotoxic metabolites from the antarctic psychrophilic fungus Oidiodendron truncatum” (J Nat Prod, 2012).

How the values were obtained:
Format in all cases: functional, cell-based
A549 = assay: Cytotoxicity against human A549 cells after 72 hrs by MTT assay; conditions: A549, 72 h
Bel-7402 = assay: Cytotoxicity against human Bel7402 cells after 72 hrs by MTT assay; conditions: Bel-7402, 72 h
A2780 = assay: Cytotoxicity against human A2780 cells after 72 hrs by MTT assay; conditions: A2780, 72 h
BGC-823 = assay: Cytotoxicity against human BGC823 cells after 72 hrs by MTT assay; conditions: BGC-823, 72 h
HCT-8 = assay: Cytotoxicity against human HCT8 cells after 72 hrs by MTT assay; conditions: HCT-8, 72 h

| SMILES | IC50 (A549) | IC50 (Bel-7402) | IC50 (A2780) | IC50 (BGC-823) | IC50 (HCT-8) |
| --- | --- | --- | --- | --- | --- |
| O=C1N[C@@H](Cc2c[nH]c3ccccc23)C(=O)N[C@H]1CO | > 10000 nM | > 10000 nM | > 10000 nM | > 10000 nM | > 10000 nM |
| CN1C(=O)[C@]23SSS[C@]1(CO)C(=O)N2[C@H]1Nc2ccccc2[C@@]1(c1c[nH]c2ccccc12)[C@@H]3O | 1530 nM | 750 nM | 420 nM | 1460 nM | 1180 nM |
| CS[C@]1(CO)NC(=O)[C@](Cc2c[nH]c3ccccc23)(SC)NC1=O [CHETOSEMINUDIN C] | > 10000 nM | > 10000 nM | > 10000 nM | > 10000 nM | > 10000 nM |
| CN1C(=O)[C@]23SS[C@@]1(CO)C(=O)N2[C@H]1Nc2ccccc2C1([C@@]12c4ccccc4N[C@@H]1N1C(=O)[C@]4(CO)SSS[C@]1(C(=O)N4C)[C@H]2O)[C@@H]3O (stereo partly drawn) [CHETRACIN B] | 22 nM | 3 nM | 28 nM | 11 nM | 13 nM |
| CN1C(=O)[C@]23SSS[C@@]1(CO)C(=O)N2[C@H]1Nc2ccccc2C1([C@@]12c4ccccc4N[C@@H]1N1C(=O)[C@]4(CO)SSS[C@]1(C(=O)N4C)[C@H]2O)[C@@H]3O (stereo partly drawn) [CHETRACIN C] | 720 nM | 380 nM | 580 nM | 700 nM | 490 nM |
| CS[C@@]1(CO)C(=O)N2[C@H]3Nc4ccccc4C3([C@@]34c5ccccc5N[C@@H]3N3C(=O)[C@](CO)(SC)N(C)C(=O)[C@@]3(SC)[C@H]4O)[C@H](O)[C@]2(SC)C(=O)N1C (stereo partly drawn) [CHETRACIN D] | 140 nM | 810 nM | 1650 nM | 1830 nM | 1060 nM |
| CN1C(=O)[C@]23SS[C@@]1(CO)C(=O)N2[C@H]1Nc2ccccc2C1([C@@]12c4ccccc4N[C@@H]1N1C(=O)[C@]4(CO)SS[C@]1(C(=O)N4C)[C@H]2O)[C@@H]3O (stereo partly drawn) [MELINACIDIN IV] | 22 nM | 5 nM | 54 nM | 47 nM | 52 nM |
| CS[C@@]1(CO)C(=O)N2[C@H]3N(C=O)c4ccccc4[C@@]3(c3c[nH]c4ccccc34)[C@H](O)[C@]2(SC)C(=O)N1C [OIDIOPERAZINE A] | > 10000 nM | > 10000 nM | > 10000 nM | > 10000 nM | > 10000 nM |
| CON1C(=O)C(CO)NC(=O)C1(O)Cc1c[nH]c2ccccc12 (stereo not drawn) [OIDIOPERAZINE B] | > 10000 nM | > 10000 nM | > 10000 nM | > 10000 nM | > 10000 nM |
| COC1(CO)NC(=O)/C(=C/c2c[nH]c3ccccc23)NC1=O (stereo not drawn) [OIDIOPERAZINE C] | > 10000 nM | > 10000 nM | > 10000 nM | > 10000 nM | > 10000 nM |
| C=C1NC(=O)C(Cc2c[nH]c3ccccc23)(OC)N(OC)C1=O (stereo not drawn) [OIDIOPERAZINE D] | > 10000 nM | > 10000 nM | > 10000 nM | > 10000 nM | > 10000 nM |
| CC(=O)O[C@H]1C(=O)[C@@]2(C)[C@H]([C@H](OC(=O)c3ccccc3)[C@]3(O)C[C@H](OC(=O)[C@H](O)[C@@H](NC(=O)c4ccccc4)c4ccccc4)C(C)=C1C3(C)C)[C@]1(OC(C)=O)CO[C@@H]1C[C@@H]2O [PACLITAXEL] | – | 6 nM | < 1 nM | < 1 nM | – |
| CS[C@@]1(CO)C(=O)N2[C@H]3Nc4ccccc4[C@@]3(c3c[nH]c4ccccc34)[C@H](O)[C@]2(SC)C(=O)N1C [T988 B] | > 10000 nM | > 10000 nM | > 10000 nM | > 10000 nM | > 10000 nM |
| CN1C(=O)[C@]23SS[C@]1(CO)C(=O)N2[C@H]1Nc2ccccc2[C@@]1(c1c[nH]c2ccccc12)[C@@H]3O [T988 C] | 1240 nM | 550 nM | 480 nM | 670 nM | 700 nM |
